≈ marks a conversion by molar mass, not a printed value.
Experiments:
A549 = test: cells; conditions: Homo sapiens, A549, 48 h
WI-38 = test: Antiproliferative activity against human WI-38 cells measured after 48 hrs by MTT assay; type: functional, cell-based; conditions: WI-38, 48 h
[1] = Selectivity index, ratio IC50 for antiproliferative activity against human WI-38 cells over IC50 for antiproliferative activity against human A549 cells; type: toxicity, cell-based; conditions: WI-38 cells and A549 cells, read-out: Ratio IC50
Calu-1 = test: Antiproliferative activity against human Calu-1 cells measured after 48 hrs by MTT assay; type: functional, cell-based; conditions: Calu-1, 48 h
[2] = Acute toxicity in female ICR mouse assessed as changes in creatine kinase (CK) level in heart at 6.25 to 50 mg/kg; type: organism-based; conditions: in vivo, dose 6.25-50 mg/kg
[3] = Acute toxicity in female ICR mouse assessed as changes in ALT level in liver at 6.25 to 50 mg/kg; type: organism-based; conditions: in vivo, dose 6.25-50 mg/kg
[4] = Acute toxicity in female ICR mouse assessed as pathological changes in intestine at 6.25 to 50 mg/kg measured by H and E staining method; type: organism-based; conditions: in vivo, dose 6.25-50 mg/kg
[5] = Acute toxicity in female ICR mouse assessed as pathological changes in lung at 6.25 to 50 mg/kg measured by H and E staining method; type: organism-based; conditions: in vivo, dose 6.25-50 mg/kg
Huh-7 = test: Antiproliferative activity against human Huh-7 cells measured after 48 hrs by MTT assay; type: functional, cell-based; conditions: Huh-7, 48 h
SK-OV-3 = test: Antiproliferative activity against human SK-OV-3 cells measured after 48 hrs by MTT assay; type: functional, cell-based; conditions: SK-OV-3, 48 h
[6] = Acute toxicity in female ICR mouse assessed as pathological changes in heart at 6.25 to 50 mg/kg measured by H and E staining method; type: organism-based; conditions: in vivo, dose 6.25-50 mg/kg
NCI-H460 = test: Antiproliferative activity against human NCI-H460 cells measured after 48 hrs by MTT assay; type: functional, cell-based; conditions: NCI-H460, 48 h
SK-BR-3 = test: Antiproliferative activity against human SK-BR-3 cells measured after 48 hrs by MTT assay; type: functional, cell-based; conditions: SK-BR-3, 48 h
[7] = Acute toxicity in female ICR mouse assessed as changes in AST level in liver at 6.25 to 50 mg/kg; type: organism-based; conditions: in vivo, dose 6.25-50 mg/kg
PC-9 [8] = test: Induction of apoptosis in human PC-9 cells assessed as total apoptotic cells at 10 ug/ml measured after 48 hrs by AnnexinV-FITC/PI staining based flow cytometry (reference value: 6.99%); type: functional; conditions: dose 10 µg/ml
PC-9 [9] = test: Induction of apoptosis in human PC-9 cells assessed as total apoptotic cells at 3 ug/ml measured after 48 hrs by AnnexinV-FITC/PI staining based flow cytometry (reference value: 6.99%); type: functional; conditions: dose 3 µg/ml
[10] = Acute toxicity in female ICR mouse assessed as pathological changes in kidney at 6.25 to 50 mg/kg measured by H and E staining method; type: organism-based; conditions: in vivo, dose 6.25-50 mg/kg
[11] = Acute toxicity in female ICR mouse assessed as pathological changes in spleen at 6.25 to 50 mg/kg measured by H and E staining method; type: organism-based; conditions: in vivo, dose 6.25-50 mg/kg
786-0 = test: Antiproliferative activity against human 786-0 cells measured after 48 hrs by MTT assay; type: functional, cell-based; conditions: 786-0, 48 h
HeLa = test: Antiproliferative activity against human HeLa cells measured after 48 hrs by MTT assay; type: functional, cell-based
PC-9 [12] = test: Induction of apoptosis in human PC-9 cells assessed as total apoptotic cells at 100 ug/ml measured after 48 hrs by AnnexinV-FITC/PI staining based flow cytometry (reference value: 6.99%); type: functional; conditions: dose 100 µg/ml
PC-9 [13] = test: Antiproliferative activity against human PC-9 cells measured after 48 hrs by MTT assay; type: functional, cell-based; conditions: PC-9, 48 h
[14] = Acute toxicity in female ICR mouse assessed as pathological changes in liver at 6.25 to 50 mg/kg measured by H and E staining method; type: organism-based; conditions: in vivo, dose 6.25-50 mg/kg
HCT-116 = test: Antiproliferative activity against human HCT-116 cells measured after 48 hrs by MTT assay; type: functional, cell-based; conditions: HCT-116, 48 h
[15] = Acute toxicity in female ICR mouse assessed as changes in creatine kinase (CK) level in heart at 25 mg/kg; type: organism-based; conditions: in vivo
[16] = Acute toxicity in female ICR mouse assessed as changes in AST level in liver at 25 mg/kg; type: organism-based; conditions: in vivo
[17] = Acute toxicity in female ICR mouse assessed as pathological changes in intestine at 25 mg/kg measured by H and E staining method; type: organism-based; conditions: in vivo
[18] = Acute toxicity in female ICR mouse assessed as pathological changes in spleen at 25 mg/kg measured by H and E staining method; type: organism-based; conditions: in vivo
[19] = Acute toxicity in female ICR mouse assessed as changes in ALT level in liver at 25 mg/kg; type: organism-based; conditions: in vivo
[20] = Acute toxicity in female ICR mouse assessed as pathological changes in kidney at 25 mg/kg measured by H and E staining method; type: organism-based; conditions: in vivo
[21] = Acute toxicity in female ICR mouse assessed as pathological changes in liver at 25 mg/kg measured by H and E staining method; type: organism-based; conditions: in vivo
[22] = Acute toxicity in female ICR mouse assessed as pathological changes in lung at 25 mg/kg measured by H and E staining method; type: organism-based; conditions: in vivo
[23] = Acute toxicity in female ICR mouse assessed as pathological changes in heart at 25 mg/kg measured by H and E staining method; type: organism-based; conditions: in vivo

In the case of O=C1c2cccc(O)c2C(=O)c2c(O)cc(C(=O)N3CCN(C(=S)SCc4ccc(F)cc4)CC3)cc21, the IC50 (A549) is reported as 36.4 µg/mL (≈ 67.8 µM), the IC50 (WI-38) is reported as over 100 µg/mL and the selectivity ratio [1] is reported as 3.

With O=C1c2cccc(O)c2C(=O)c2c(O)cc(C(=O)N3CCN(C(=S)SCc4ccc(Cl)cc4)CC3)cc21 the IC50 (A549) was over 100 µg/mL and the IC50 (WI-38) was 72.5 µg/mL (≈ 131 µM).

With COC(=O)CSC(=S)N1CCN(C(=O)c2cc(O)c3c(c2)C(=O)c2cccc(O)c2C3=O)CC1 the IC50 (A549) was 31 µg/mL (≈ 61.9 µM), the IC50 (WI-38) was 67 µg/mL (≈ 134 µM) and the selectivity ratio [1] was 2.

Compound O=C1c2cccc(O)c2C(=O)c2c(O)cc(C(=O)N3CCN(C(=S)SCCCOc4ccccc4)CC3)cc21 has an IC50 (A549) of over 100 µg/mL, an IC50 (WI-38) of over 100 µg/mL and a selectivity ratio [1] of 1.

O=C(CSC(=S)N1CCN(C(=O)c2cc(O)c3c(c2)C(=O)c2cccc(O)c2C3=O)CC1)OCc1ccccc1 gave an IC50 (A549) of 29.8 µg/mL (≈ 51.7 µM), an IC50 (WI-38) of over 100 µg/mL and a selectivity ratio [1] of 3.

In the case of CCOC(=O)CCCSC(=S)N1CCN(C(=O)c2cc(O)c3c(c2)C(=O)c2cccc(O)c2C3=O)CC1, the IC50 (Calu-1) is reported as 23.8 µg/mL (≈ 43.8 µM), the IC50 (A549) is reported as 10.9 µg/mL (≈ 20.1 µM) and the Activity [2] is reported as “Non-Toxic”. The IC50 (WI-38) was 55.3 µg/mL (≈ 102 µM), the Activity [3] was “Non-Toxic” and the Activity [4] was “Non-Toxic”. The Activity [5] was “Non-Toxic”, the IC50 (Huh-7) was 23.8 µg/mL (≈ 44 µM) and the IC50 (SK-OV-3) was 35.5 µg/mL (≈ 65.4 µM). The Activity [6] was “Non-Toxic”, the IC50 (NCI-H460) was 23 µg/mL (≈ 42.4 µM) and the IC50 (SK-BR-3) was 52 µg/mL (≈ 95.8 µM). The Activity [7] was “Non-Toxic”, the Activity (PC-9 [8]) was 28.97% and the Activity (PC-9 [9]) was 13.22%. For the same compound, the Activity [10] was “Non-Toxic”, the Activity [11] was “Non-Toxic” and the IC50 (786-0) was 30.1 µg/mL (≈ 55.6 µM). The IC50 (HeLa) was 30.6 µg/mL (≈ 56.4 µM), the Activity (PC-9 [12]) was 47.06% and the IC50 (PC-9 [13]) was 10.8 µg/mL (≈ 19.9 µM). The Activity [14] was “Non-Toxic”, the selectivity ratio [1] was 5 and the IC50 (HCT-116) was 25.9 µg/mL (≈ 47.7 µM).

With C=CCSC(=S)N1CCN(C(=O)c2cc(O)c3c(c2)C(=O)c2cccc(O)c2C3=O)CC1 the IC50 (A549) was 40.5 µg/mL (≈ 86.5 µM), the IC50 (WI-38) was over 100 µg/mL and the selectivity ratio [1] was 3.

With Cc1ccc(CSC(=S)N2CCN(C(=O)c3cc(O)c4c(c3)C(=O)c3cccc(O)c3C4=O)CC2)cc1 the IC50 (A549) was over 100 µg/mL, the IC50 (WI-38) was over 100 µg/mL and the selectivity ratio [1] was 1.

With O=C1c2cccc(O)c2C(=O)c2c(O)cc(C(=O)N3CCN(C(=S)SCc4ccccc4)CC3)cc21 the IC50 (A549) was 78.6 µg/mL (≈ 152 µM), the IC50 (WI-38) was 48.8 µg/mL (≈ 94 µM) and the selectivity ratio [1] was 1.

O=C1c2cccc(O)c2C(=O)c2c(O)cc(C(=O)N3CCN(C(=S)SCc4ccc(C(F)(F)F)cc4)CC3)cc21 showed an IC50 (A549) of over 100 µg/mL, an IC50 (WI-38) of over 100 µg/mL and a selectivity ratio [1] of 1.

Compound Nc1ccn([C@@H]2O[C@H](CO)[C@@H](O)[C@@H]2O)c(=O)n1 [CYTARABINE] has an IC50 (A549) of 49.3 µg/mL (≈ 203 µM), an IC50 (WI-38) of over 100 µg/mL and a selectivity ratio [1] of 2.

COc1cccc2c1C(=O)c1c(O)c3c(c(O)c1C2=O)C[C@@](O)(C(=O)CO)C[C@@H]3O[C@H]1C[C@H](N)[C@H](O)[C@H](C)O1 [DOXORUBICIN] gave an IC50 (A549) of 0.665 µg/mL (≈ 1.22 µM) and an IC50 (WI-38) of 0.079 µg/mL (≈ 0.145 µM).

In the case of O=C(O)c1cc(O)c2c(c1)C(=O)c1cccc(O)c1C2=O [RHEIN], the IC50 (A549) is reported as 77.1 µg/mL (≈ 271 µM), the Activity [15] is reported as “Non-Toxic” and the IC50 (WI-38) is reported as 92.3 µg/mL (≈ 325 µM). For the same compound, the Activity [16] was “Non-Toxic”, the Activity [17] was “Non-Toxic” and the Activity [18] was “Non-Toxic”. For the same compound, the Activity [19] was “Non-Toxic”, the Activity [20] was “Non-Toxic” and the selectivity ratio [1] was 1. The Activity [21] was “Non-Toxic”, the Activity [22] was “Non-Toxic” and the Activity [23] was “Non-Toxic”.

Reference: ChEMBL document CHEMBL5108023, “Design, synthesis and biological evaluation of rhein-piperazine-dithiocarbamate hybrids as potential anticancer agents” (Eur J Med Chem, 2022)
